Source: the NIST ThermoML archive (doi:10.1016/j.tca.2009.06.015)

Experiments:
[1] = refractive index (Na D-line) (dimensionless); xn = mol fraction of the nth substance listed; settings: 101 kPa, Liquid, Standard Abbe refractometry
[2] = xn = mol fraction of the nth substance listed; settings: 101 kPa, Liquid; for viscosity: Capillary tube (Ostwald / Ubbelohde) method; for mass density: Vibrating tube method

CCCCC(C)O (configuration not stated) [2-hexanol] + CC#N
Settings	mass density, [2] [kg/m3]	refractive index, [1]	viscosity, [2] [mPa·s]
293.15 K, x2 = 0	814.08	1.4135	5.155
293.15 K, x2 = 0.0964	812.14	1.4103	3.491
293.15 K, x2 = 0.1813	810.22	1.4077	2.696
293.15 K, x2 = 0.2574	808.34	1.4051	2.128
293.15 K, x2 = 0.3436	806.07	1.4014	1.684
293.15 K, x2 = 0.4483	803.11	1.3972	1.276
293.15 K, x2 = 0.5398	800.33	1.3917	1.006
293.15 K, x2 = 0.6495	796.76	1.3837	0.7676
293.15 K, x2 = 0.758	792.88	1.3739	0.582
293.15 K, x2 = 0.8733	788.19	1.3621	0.4444
293.15 K, x2 = 0.9579	784.29	1.351	0.3758
298.15 K, x2 = 0	810.14	1.4116	4.1
298.15 K, x2 = 0.0964	808.14	1.4096	2.933
298.15 K, x2 = 0.1813	806.14	1.4078	2.284
298.15 K, x2 = 0.2574	804.19	1.4054	1.84
298.15 K, x2 = 0.3436	801.82	1.4022	1.475
298.15 K, x2 = 0.4483	798.72	1.3975	1.133
298.15 K, x2 = 0.5398	795.82	1.3924	0.9062
298.15 K, x2 = 0.6495	792.09	1.3837	0.6995
298.15 K, x2 = 0.758	788.02	1.373	0.5384
298.15 K, x2 = 0.8733	783.08	1.3595	0.4184
298.15 K, x2 = 0.9579	779.02	1.348	0.3583
303.15 K, x2 = 0	806.13	1.4093	3.41
303.15 K, x2 = 0.0964	804.04	1.4082	2.491
303.15 K, x2 = 0.1813	801.94	1.4064	1.967
303.15 K, x2 = 0.2574	799.91	1.4044	1.61
303.15 K, x2 = 0.3436	797.49	1.4021	1.301
303.15 K, x2 = 0.4483	794.38	1.3979	1.017
303.15 K, x2 = 0.5398	791.33	1.3925	0.8212
303.15 K, x2 = 0.6495	787.45	1.3839	0.6409
303.15 K, x2 = 0.758	783.07	1.374	0.5036
303.15 K, x2 = 0.8733	777.74	1.3596	0.3943
303.15 K, x2 = 0.9579	773.37	1.345	0.3411
308.15 K, x2 = 0	802.06	1.4077	2.819
308.15 K, x2 = 0.0964	799.97	1.4069	2.134
308.15 K, x2 = 0.1813	797.84	1.4061	1.708
308.15 K, x2 = 0.2574	795.74	1.4049	1.42
308.15 K, x2 = 0.3436	793.18	1.4026	1.155
308.15 K, x2 = 0.4483	789.88	1.3979	0.9154
308.15 K, x2 = 0.5398	786.73	1.3925	0.7511
308.15 K, x2 = 0.6495	782.83	1.3844	0.5933
308.15 K, x2 = 0.758	778.36	1.3745	0.4724
308.15 K, x2 = 0.8733	772.84	1.361	0.3759
308.15 K, x2 = 0.9579	768.23	1.3469	0.3263
